The format of this data set is in vivo, Sprague-Dawley rats. The following applies: rat, in vivo, iv. On the procedure:
Adult male Sprague-Dawley (SD) rats (approx 300 g) were used for the experiment. Femoral artery cannulae was implanted and exteriorised following isoflurane anaesthesia. Jugular vein artery cannulae was implanted and exteriorized. […]. Blood samples (˜325 μL) were collected into sample tubes containing the anticoagulant sodium citrate from femoral artery catheter pre-dose and at 5, 20 minutes and 2, 5, 8, 12, 24, and 48 hours post-dose, and kept at reduced temperature (approx 4° C.) until centrifuged. Blood samples were centrifuged, plasma separated and 50 μL aliquot of the plasma transferred to a scintillation vial for counting. At the end of the experimental period animals were euthanased via a lethal overdose of pentobarbital. The level of radioactivity in the plasma was measured following mixing of samples with Packard Ultima Gold liquid scintillation counting cocktail. Counting was conducted on a Beckman liquid scintillation counter (LS6500) or Packard TriCarb liquid scintillation counter for 10 minutes per sample. Results (DPM, calculated from an in-built quench curve in the counter) were corrected for background prior to any calculations. The pharmacokinetic parameters were calculated using PK Solutions 2.0 software (Summit Research Services, Ohio, U.S.A.) and are summarised in Table 11 below.

Each structure is given as a SMILES string.

Take `CC(C)CCC[C@@H](C)[C@H]1CC[C@H]2[C@@H]3CCC4CC(OCc5cn([C@@H]6O[C@H](COS(=O)(=O)[O-])[C@@H](O[C@H]7O[C@H](COS(=O)(=O)[O-])[C@@H](O[C@H]8O[C@H](COS(=O)(=O)[O-])[C@@H](OS(=O)(=O)[O-])[C@H](OS(=O)(=O)[O-])[C@H]8OS(=O)(=O)[O-])[C@H](OS(=O)(=O)[O-])[C@H]7OS(=O)(=O)[O-])[C@H](OS(=O)(=O)[O-])[C@H]6OS(=O)(=O)[O-])nn5)CC[C@]4(C)[C@H]3CC[C@]12C.[Na+].[Na+].[Na+].[Na+].[Na+].[Na+].[Na+].[Na+].[Na+].[Na+]` (stereo partly drawn) [Compound 70, 4-(Cholestan-3-yl-oxymethyl)[1,2,3]triazol-1-yl 2,3,4,6-tetra-O-sodium sulfonato-α-D-glucopyranosyl-(1→4)-2,3,6-tri-O-sodium sulfonato-α-D-glucopyranosyl-(1→4)-1-deoxy-2,3,6-tri-O-sodium sulfonato-β-D-glucopyranoside]: the “Half-life (iv)” value worked out at 10.3 h.

These data come from patent US20150065440A1 (Progen Pharmaceuticals Limited, priority 2007, published 2015).
